Patent publication US8481546B2, “CGRP receptor antagonist” (Bristol-Myers Squibb Company, priority 2010, dated 2013)
Values after ≈ are worked out from the molar mass of the structure shown. Where two headings read alike, the source gives them in different places.

What was measured:
[1] = molecular target: T1, CGRP receptor (CGRP-stimulated cAMP production) (Homo sapiens, UniProt O60894+Q16602); test: Schild analysis of CGRP-stimulated cAMP production; type: cell-based
T1 construct: endogenous in cells; host or cells: SK-N-MC human neuroblastoma cells (membrane homogenate or attached whole cells)
Description: Schild analysis is used to characterize the nature of the antagonism of Compound I. The dose response of CGRP-stimulated cAMP production is generated either with CGRP alone, or with CGRP in the presence of various concentrations of Compound I. Specifically, dose-dependent cAMP stimulation by CGRP is assayed with or without five different concentrations of Compound I. The concentration of Compound I is plotted on the X-axis against the dose ratio minus 1 on the Y-axis (dose ratio is defined as the EC50 of CGRP in the presence of Compound I divided by the EC50 of CGRP alone). Linear regression is then performed with both X and Y axes log-transformed. […] Kb is the antagonist dissociation constant.

[2] = Aqueous solubility, pH dependence; type: physicochemical
Description: Solid free base was mixed with carbonate, and ethanolamine buffers. The pH of a third sample was adjusted with HCl. The solids were mixed with the vehicles using a mixer that was enclosed within an incubator set to 25 C. After equilibration, samples of the supernatant were withdrawn, diluted as appropriate, and analyzed by HPLC.
Crystalline Compound I converted to a gelatinous phase during measurement of the pH solubility profile. The absence of a crystalline phase in equilibrium with water prevents a confident assessment of the pH range in which Compound I can be formulated as a thermodynamically stable solution. Efforts to generate a crystalline free base form of Compound I that can be equilibrated in water are ongoing.

[3] = Intravenous exposure in rats (reference for bioavailability); conditions: rat, in vivo, intravenous administration of 1 mg/kg, read-out: AUC0-24 h
[4] = test system: olfactory epithelium (nasal turbinates); type: in vivo, rats
Description: Compound I and Compound II were also compared directly for intranasal irritation. […] The only endpoint evaluated in this study was histological evaluation of the nasal turbinates.

[5] = Pharmacokinetics in the rabbit after IV and IN administration; type: in vivo, New Zealand White rabbits
Description: The feasibility of nasal delivery was assessed in the IN rabbit model by comparing the plasma concentration-time profiles and pharmacokinetic parameters (Cmax, Tmax, AUC and bioavailability) for nasally delivered Compound I to that delivered by the IV route. The dosing solution concentration and delivery volume are included in the data tables for each study. Vehicle compositions are described in the footnotes below the table.
Groups of three male New Zealand White rabbits, ranging in weight from 3-3.5 kg, received a single dose of drug in one of the following treatments: 0.5 mg/kg IV bolus injection over 30 seconds, or 0.3-3 mg/kg IN administered with a syringe microsprayer. Prior to IN dosing, rabbits were lightly sedated to effect with the inhalant anesthetic, Sevoflurane. The rabbits regained consciousness in 2-5 min. Serial blood samples were collected in heparin-containing vacutainers at predose, 2, 5, 10, 15, 30 min and 1, 2, 4, 6, and 24 hours post-dose. Blood samples were immediately centrifuged at 4° C. and the separated plasma stored at −80° C. until further analysis by the LC/MS/MS assay.

[6] = One-week comparative intranasal irritation study in rats: toxicokinetics; conditions: male, rat, in vivo; for Cmax / Tmax / AUC(0-t) / half-life: inhaled or intranasal; for concentration at 24 h: other: intranasal instillation
Description: This study was conducted to compare potential nasal irritation of Compound I to Compound III when given intranasally to male rats for 1 week. Male rats (10/group) were instilled intranasally with Compound I or Compound III solutions ([…] in 225 mM succinic acid, 0.02% benzalkonium chloride, 1.25% anhydrous dextrose, pH 5.8-6.2) once daily at a dose volume of 100 μL/nostril. Using this dosing paradigm, fixed doses of 5, 15 or 35 mg of test article were delivered daily. As a consequence, dosages normalized to body weight decreased with time as the rats grew. One control group was given succinate vehicle and a sham control group was given saline by intranasal instillation. Parameters evaluated included clinical observations, body weight, food consumption, toxicokinetics, and histological evaluation of nasal tissues.

[7] = 25 μL/nostril, 75 mg/ml, 3.75 mg/rat/day (0.268 mg/cm^2)
[8] = 25 μL/nostril, 175 mg/ml, 8.75 mg/rat/day (0.625 mg/cm^2)
[9] = 100 μL/nostril, 175 mg/ml, 35 mg/rat/day (2.500 mg/cm^2)
[10] = male, New Zealand White, plasma, IV 0.5 mg/kg
[11] = 5 mg, intranasal 5 mg (0.357 mg/cm^2) once daily, Day 0
[12] = 5 mg, intranasal 5 mg (0.357 mg/cm^2) once daily, Day 6
[13] = 15 mg, intranasal 15 mg (1.07 mg/cm^2) once daily, Day 0
[14] = 15 mg, intranasal 15 mg (1.07 mg/cm^2) once daily, Day 6
[15] = 35 mg, intranasal 35 mg (2.50 mg/cm^2) once daily, Day 0
[16] = 35 mg, intranasal 35 mg (2.50 mg/cm^2) once daily, Day 6

T1 sequence (Q16602 23-461): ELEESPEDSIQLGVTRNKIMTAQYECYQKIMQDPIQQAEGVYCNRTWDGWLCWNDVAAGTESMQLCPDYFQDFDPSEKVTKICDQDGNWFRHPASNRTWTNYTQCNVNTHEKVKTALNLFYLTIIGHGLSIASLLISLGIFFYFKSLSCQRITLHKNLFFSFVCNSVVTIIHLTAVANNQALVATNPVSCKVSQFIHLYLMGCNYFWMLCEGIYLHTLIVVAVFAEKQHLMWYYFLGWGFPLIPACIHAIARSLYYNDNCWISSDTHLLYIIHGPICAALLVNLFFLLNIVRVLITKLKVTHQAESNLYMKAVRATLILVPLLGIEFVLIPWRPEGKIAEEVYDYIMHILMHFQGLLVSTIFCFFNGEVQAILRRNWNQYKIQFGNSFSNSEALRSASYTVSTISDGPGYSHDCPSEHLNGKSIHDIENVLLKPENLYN
T1 sequence (O60894 27-148): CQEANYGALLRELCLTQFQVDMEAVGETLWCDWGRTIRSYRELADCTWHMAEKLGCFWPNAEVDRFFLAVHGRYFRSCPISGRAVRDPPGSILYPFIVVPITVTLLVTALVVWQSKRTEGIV

In the case of Cc1cc(C[C@@H](NC(=O)N2CCC(c3cc4ccccc4[nH]c3=O)CC2)C(=O)N2CCN(C3CCN(C)CC3)CC2)cc2cn[nH]c12 [Compound I, (R)—N-(3-(7-methyl-1H-indazol-5-yl)-1-(4-(1-methylpiperidin-4-yl)piperazin-1-yl)-1-oxopropan-2-yl)-4-(2-oxo-1,2-dihydroquinolin-3-yl)piperidine-1-carboxamide], the “Schild analysis mean slope” value [1] is reported as 1.02±0.04, the Kb ([1]; Schild analysis, read-out: mean antagonist dissociation constant Kb) is reported as 21.5 ± 9.4 pM and the solubility ([2]; Partial titration of Compound I with HCl, pH = 8.5, 25 C) is reported as 105000 µg/mL (≈ 164000 µM). It also gave a solubility ([2]; aqueous buffer, thermodynamic from solid, Carbonate buffer, pH = 10.4, 25 C, read-out: Solubility) of 200 µg/mL (≈ 313 µM), a solubility ([2]; aqueous buffer, thermodynamic from solid, Ethanolamine buffer, pH = 9.4, 25 C, read-out: Solubility) of 500 µg/mL (≈ 783 µM) and a solubility ([2]; aqueous media, aqueous buffer, thermodynamic from solid, pH < 8.5, 25 C, read-out: Solubility) of over 300000 µg/mL. For the same compound, the AUC(0-t) [3] was 7.7 µM·h, the “Olfactory epithelial toxicity, number of animals with severity None” value ([4]; 12.5 μL/nostril, 75 mg/ml, 1.875 mg/rat/day (0.134 mg/cm^2)) was 5 and the “Olfactory epithelial toxicity, number of animals with severity None” value ([4]; 12.5 μL/nostril, 175 mg/ml, 4.375 mg/rat/day (0.313 mg/cm^2)) was 5. For the same compound, the “Olfactory epithelial toxicity, number of animals with severity Minimal” value [4, 7] was 3, the “Olfactory epithelial toxicity, number of animals with severity None” value [4, 7] was 2 and the “Olfactory epithelial toxicity, number of animals with severity Minimal” value [4, 8] was 1. For the same compound, the “Olfactory epithelial toxicity, number of animals with severity None” value [4, 8] was 4, the “Olfactory epithelial toxicity, number of animals with severity Slight” value ([4]; 100 μL/nostril, 75 mg/ml, 15 mg/rat/day (1.071 mg/cm^2)) was 5 and the “Olfactory epithelial toxicity, number of animals with severity Mild” value [4, 9] was 4. For the same compound, the “Olfactory epithelial toxicity, number of animals with severity Slight” value [4, 9] was 1, the “time drug was detected in plasma post-dose” value ([5]; IN) was “at least 6 h” and the “time drug was detected in plasma post-dose” value ([5]; IN, high dose) was “up to 24 hr”. The Plasma levels ([5]; IN, measured within 5 min) was over 10 nM, the MRT [5, 10] was 0.38 ± 0.15 h and the clearance [5, 10] was 7.9 ± 3 mL/min/kg. The half-life [5, 10] was 1.3 ± 0.26 h, the AUC ([5]; male, New Zealand White, plasma, IV 0.5 mg/kg, n = 3, Mean ± SD) was 1.8 ± 0.58 µM·h and the Vd ([5]; male, New Zealand White, plasma, IV 0.5 mg/kg, read-out: Vss) was 0.16 ± 0.01 L/kg. It also gave a Cmax ([5]; male, New Zealand White, plasma, inhaled or intranasal, 0.3 mg/kg, IN low dose 0.3 mg/kg (10 mg/ml), n = 3, Mean ± SD) of 120 nM, a bioavailability ([5]; male, New Zealand White, plasma, inhaled or intranasal, 0.3 mg/kg, IN low dose 0.3 mg/kg, read-out: Bioavailability (F %)) of 12.5 ± 6.56% and a Cmax ([5]; male, New Zealand White, plasma, inhaled or intranasal, 1 mg/kg, IN mid-dose 1.0 mg/kg (30 mg/ml), n = 3, Mean ± SD) of 550 ± 260 nM. For the same compound, the bioavailability ([5]; male, New Zealand White, plasma, inhaled or intranasal, 1 mg/kg, IN mid-dose 1.0 mg/kg, read-out: Bioavailability (F %)) was 18.8 ± 8.96%, the Cmax ([5]; male, New Zealand White, plasma, inhaled or intranasal, 3 mg/kg, IN high dose 3.0 mg/kg (100 mg/ml), n = 3, Mean ± SD) was 2030 ± 1000 nM and the bioavailability ([5]; male, New Zealand White, plasma, inhaled or intranasal, 3 mg/kg, IN high dose 3.0 mg/kg, read-out: Bioavailability (F %)) was 30.2 ± 10.8%. It also gave a Cmax ([5]; male, New Zealand White, plasma, inhaled or intranasal, 3 mg/kg, IN, range over 0.3, 1, and 3 mg/kg) of 120 to 2000 nM, a bioavailability ([5]; male, New Zealand White, plasma, inhaled or intranasal, 3 mg/kg, IN, range over 0.3, 1, and 3 mg/kg, read-out: absolute bioavailability) of 13 to 30% and an AUC ([5]; male, New Zealand White, plasma, inhaled or intranasal, IN high dose 3.0 mg/kg (100 mg/ml), n = 3, Mean ± SD) of 3.27 ± 1.17 µM·h. For the same compound, the Tmax ([5]; male, New Zealand White, plasma, inhaled or intranasal, IN high dose 3.0 mg/kg, read-out: Tmax) was 0.33 h, the AUC ([5]; male, New Zealand White, plasma, inhaled or intranasal, IN low dose 0.3 mg/kg (10 mg/ml), n = 3, Mean ± SD) was 0.14 ± 0.07 µM·h and the Tmax ([5]; male, New Zealand White, plasma, inhaled or intranasal, IN low dose 0.3 mg/kg, read-out: Tmax) was 0.25 h. The AUC ([5]; male, New Zealand White, plasma, inhaled or intranasal, IN mid-dose 1.0 mg/kg (30 mg/ml), n = 3, Mean ± SD) was 0.69 ± 0.33 µM·h, the Tmax ([5]; male, New Zealand White, plasma, inhaled or intranasal, IN mid-dose 1.0 mg/kg, read-out: Tmax) was 0.25 h and the Tmax ([5]; male, New Zealand White, plasma, inhaled or intranasal, IN, all doses studied, read-out: time to reach peak concentrations (Tmax)) was 0.2 to 0.3 h. The Cmax ([5]; male, New Zealand White, plasma, iv, 0.5 mg/kg, IV 0.5 mg/kg, n = 3, Mean ± SD) was 13700 ± 1800 nM, the Cmax [6, 11] was 330 nM and the Tmax [6, 11] was 0.5 h. The AUC(0-t) ([6]; 5 mg, intranasal 5 mg (0.357 mg/cm^2) once daily, Day 0, read-out: Composite AUC0-24 h) was 1.6 µM·h, the half-life ([6]; 5 mg, intranasal 5 mg (0.357 mg/cm^2) once daily, Day 0, read-out: Mean T1/2 (converted)) was 7.1 h and the Cmax [6, 12] was 660 nM. It also gave a Tmax [6, 12] of 1 h, an AUC(0-t) ([6]; 5 mg, intranasal 5 mg (0.357 mg/cm^2) once daily, Day 6, read-out: Composite AUC0-24 h) of 2.6 µM·h and a half-life ([6]; 5 mg, intranasal 5 mg (0.357 mg/cm^2) once daily, Day 6, read-out: Mean T1/2 (converted)) of 5.6 h. For the same compound, the Cmax [6, 13] was 2200 nM, the Tmax [6, 13] was 1 h and the AUC(0-t) ([6]; 15 mg, intranasal 15 mg (1.07 mg/cm^2) once daily, Day 0, read-out: Composite AUC0-24 h) was 4.6 µM·h. For the same compound, the half-life ([6]; 15 mg, intranasal 15 mg (1.07 mg/cm^2) once daily, Day 0, read-out: Mean T1/2 (converted)) was 5.1 h, the Cmax [6, 14] was 830 nM and the Tmax [6, 14] was 0.5 h. The AUC(0-t) ([6]; 15 mg, intranasal 15 mg (1.07 mg/cm^2) once daily, Day 6, read-out: Composite AUC0-24 h) was 5.2 µM·h, the half-life ([6]; 15 mg, intranasal 15 mg (1.07 mg/cm^2) once daily, Day 6, read-out: Mean T1/2 (converted)) was 6.7 h and the Cmax [6, 15] was 1500 nM. It also gave a Tmax [6, 15] of 2 h, an AUC(0-t) ([6]; 35 mg, intranasal 35 mg (2.50 mg/cm^2) once daily, Day 0, read-out: Composite AUC0-24 h) of 7.9 µM·h and a Cmax [6, 16] of 1200 nM. The Tmax [6, 16] was 1 h, the AUC(0-t) ([6]; 35 mg, intranasal 35 mg (2.50 mg/cm^2) once daily, Day 6, read-out: Composite AUC0-24 h) was 5.4 µM·h and the half-life ([6]; 35 mg, intranasal 35 mg (2.50 mg/cm^2) once daily, Day 6, read-out: Mean T1/2 (converted)) was 6 h. For the same compound, the concentration at 24 h ([6]; 5 mg, intranasal 5 mg (0.357 mg/cm^2) once daily, Day 0, read-out: Mean C24 h) was 22 nM, the concentration at 24 h ([6]; 5 mg, intranasal 5 mg (0.357 mg/cm^2) once daily, Day 6, read-out: Mean C24 h) was 15 nM and the concentration at 24 h ([6]; 15 mg, intranasal 15 mg (1.07 mg/cm^2) once daily, Day 0, read-out: Mean C24 h) was 17 nM. It also gave a concentration at 24 h ([6]; 15 mg, intranasal 15 mg (1.07 mg/cm^2) once daily, Day 6, read-out: Mean C24 h) of 59 nM, a concentration at 24 h ([6]; 35 mg, intranasal 35 mg (2.50 mg/cm^2) once daily, Day 0, read-out: Mean C24 h) of 120 nM and a concentration at 24 h ([6]; 35 mg, intranasal 35 mg (2.50 mg/cm^2) once daily, Day 6, read-out: Mean C24 h) of 36 nM.
